Data taken from the supplement of paper PMC10307832.

What was measured:
Assay in all cases: relative viability (nuclei count vs DMSO), 5 days (fraction); higher = more cells survive
GSK-J4 + Vorinostat = compound: CCOC(=O)CCNc1cc(N2CCc3ccccc3CC2)nc(-c2ccccn2)n1 [GSK-J4] + O=C(CCCCCCC(=O)Nc1ccccc1)NO [Vorinostat] (partner 1 µM)
How it was run: (§1)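 Each reported value is a median over duplicate plates. It expresses relative viability: treated-well nuclei count divided by vehicle-well nuclei count. Lung cancer cell lines in 1536-well plates were dosed by pin tool a day after seeding, alone with one drug or with a fixed anchor-drug dose plus five library-drug doses (not always all listed) in √10 steps, and nuclei were counted after 5 days.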

AZ3146 + Dasatinib = compound: CN1CCC(CC1)OC2=CC(=C(C=C2)NC3=NC=C4C(=N3)N(C(=O)N4C)C5CCCC5)OC [AZ3146] + Cc1nc(Nc2ncc(C(=O)Nc3c(C)cccc3Cl)s2)cc(N2CCN(CCO)CC2)n1 [Dasatinib] (partner 0.075 µM)
How it was run: as §1

AZ3146 + Decitabine = compound: CN1CCC(CC1)OC2=CC(=C(C=C2)NC3=NC=C4C(=N3)N(C(=O)N4C)C5CCCC5)OC [AZ3146] + Nc1ncn([C@H]2C[C@H](O)[C@@H](CO)O2)c(=O)n1 [Decitabine] (partner 2 µM)
How it was run: as §1

AZ3146 + Vorinostat = compound: CN1CCC(CC1)OC2=CC(=C(C=C2)NC3=NC=C4C(=N3)N(C(=O)N4C)C5CCCC5)OC [AZ3146] + O=C(CCCCCCC(=O)Nc1ccccc1)NO [Vorinostat] (partner 1 µM)
How it was run: as §1

Row | Cell Line | relative viability (GSK-J4 + Vorinostat; first compound 0.5 µM) | relative viability (GSK-J4 + Vorinostat; first compound 1.581 µM) | relative viability (GSK-J4 + Vorinostat; first compound 15.81 µM) | relative viability (GSK-J4 + Vorinostat; first compound 50 µM) | relative viability (AZ3146 + Dasatinib; first compound 0.08 µM) | relative viability (AZ3146 + Dasatinib; first compound 0.253 µM) | relative viability (AZ3146 + Dasatinib; first compound 0.8 µM) | relative viability (AZ3146 + Dasatinib; first compound 2.53 µM) | relative viability (AZ3146 + Dasatinib; first compound 8 µM) | relative viability (AZ3146 + Decitabine; first compound 0.08 µM) | relative viability (AZ3146 + Decitabine; first compound 0.253 µM) | relative viability (AZ3146 + Decitabine; first compound 0.8 µM) | relative viability (AZ3146 + Decitabine; first compound 2.53 µM) | relative viability (AZ3146 + Decitabine; first compound 8 µM) | relative viability (AZ3146 + Vorinostat; first compound 0.08 µM) | relative viability (AZ3146 + Vorinostat; first compound 0.253 µM) | relative viability (AZ3146 + Vorinostat; first compound 0.8 µM) | relative viability (AZ3146 + Vorinostat; first compound 2.53 µM) | relative viability (AZ3146 + Vorinostat; first compound 8 µM) | relative viability (GSK-J4 + Vorinostat; first compound 5 µM)
1 | HARA | 0.554 | 0.498 | 0.311 | 0.246 | 0.274 | 0.211 | 0.254 | 0.217 | 0.302 | 0.493 | 0.563 | 0.481 | 0.487 | 0.478 | 0.495 | 0.561 | 0.559 | 0.67 | 0.423 | 
2 | NCI-H2023 | 0.59 | 0.497 | 0.514 | 0.283 | 0.57 | 0.584 | 0.472 | 0.498 | 0.147 | 0.235 | 0.203 | 0.246 | 0.227 | 0.13 | 0.422 | 0.991 | 0.407 | 0.471 | 0.193 | 0.545
3 | LC-2-ad | 0.787 | 0.529 | 0.704 | 0.528 | 0.549 | 0.746 | 0.584 | 0.665 | 0.527 | 0.729 | 0.783 | 0.728 | 0.781 | 0.716 | 0.629 | 0.703 | 0.69 | 0.694 | 0.603 | 0.325
4 | LXF-289 | 0.821 | 0.631 | 0.692 | 0.653 | 0.276 | 0.241 | 0.172 | 0.227 | 0.18 | 0.356 | 0.382 | 0.403 | 0.432 | 0.388 | 0.752 | 0.827 | 0.796 | 0.872 | 0.587 | 0.874
5 | NCI-H2347 | 0.605 | 0.558 | 0.518 | 0.538 | 0.303 | 0.248 | 0.294 | 0.316 | 0.379 | 0.588 | 0.67 | 0.593 | 0.601 | 0.631 | 0.523 | 0.562 | 0.574 | 0.717 | 0.596 | 0.586
6 | RERF-LC-KJ | 0.679 | 0.534 | 0.613 | 0.485 | 0.877 | 0.874 | 0.779 | 0.837 | 0.504 | 0.69 | 0.704 | 0.731 | 0.73 | 0.381 | 0.534 | 0.657 | 0.774 | 0.756 | 0.576 | 0.576
7 | NCI-H1650 | 0.567 | 0.501 | 0.48 | 0.286 | 0.318 | 0.315 | 0.37 | 0.265 | 0.225 | 0.377 | 0.44 | 0.366 | 0.44 | 0.367 | 0.578 | 0.392 | 0.563 | 0.554 | 0.475 | 0.663
8 | NCI-H596 | 0.743 | 0.475 | 0.503 | 0.365 | 0.56 | 0.582 | 0.581 | 0.636 | 0.538 | 0.91 | 0.92 | 1.2 | 1.3 | 1.03 | 0.53 | 0.541 | 0.586 | 0.571 | 0.587 | 0.654
9 | NCI-H1734 | 0.749 | 0.788 | 0.645 | 0.5 | 0.436 | 0.461 | 0.493 | 0.484 | 0.394 | 0.4 | 0.499 | 0.429 | 0.5 | 0.484 | 0.646 | 0.886 | 0.782 | 0.795 | 0.584 | 0.609
10 | NCI-H1915 | 0.452 | 0.481 | 0.417 | 0.483 | 0.262 | 0.344 | 0.337 | 0.301 | 0.318 | 0.267 | 0.27 | 0.266 | 0.251 | 0.264 | 0.371 | 0.513 | 0.535 | 0.559 | 0.498 | 
11 | NCI-H838 | 0.721 | 0.717 | 0.695 | 0.57 | 0.408 | 0.303 | 0.269 | 0.331 | 0.269 | 0.46 | 0.474 | 0.422 | 0.501 | 0.281 | 0.67 | 0.756 | 0.69 | 0.589 | 0.308 | 0.401
12 | HCC-15 | 0.903 | 0.791 | 0.718 | 0.503 | 0.727 | 0.64 | 0.597 | 0.557 | 0.491 | 0.529 | 0.59 | 0.642 | 0.678 | 0.39 | 0.779 | 0.796 | 0.885 | 0.887 | 0.687 | 0.789
13 | NCI-H650 | 0.358 | 0.342 | 0.319 | 0.266 | 0.351 | 0.428 | 0.435 | 0.482 | 0.491 | 0.307 | 0.31 | 0.324 | 0.317 | 0.323 | 0.237 | 0.374 | 0.265 | 0.447 | 0.4 | 
14 | NCI-H1651 | 0.607 | 0.537 | 0.448 | 0.464 | 0.335 | 0.387 | 0.422 | 0.35 | 0.251 | 0.532 | 0.634 | 0.549 | 0.543 | 0.617 | 0.428 | 0.519 | 0.477 | 0.512 | 0.568 | 0.558
15 | NCI-H2405 | 0.973 | 0.925 | 0.923 | 0.974 | 0.166 | 0.187 | 0.191 | 0.212 | 0.185 | 0.733 | 0.738 | 0.789 | 0.788 | 0.697 | 0.799 | 0.969 | 1.04 | 1.14 | 0.927 | 
16 | LU99A | 0.47 | 0.344 | 0.476 | 0.319 | 0.645 | 0.528 | 0.464 | 0.56 | 0.606 |  | 0.848 | 0.879 | 0.82 | 1.02 |  | 0.507 | 0.503 | 0.514 | 0.481 | 
17 | H3255 | 0.716 |  | 0.742 | 0.742 | 0.258 | 0.242 | 0.339 | 0.374 | 0.405 | 0.604 | 0.805 | 0.562 | 0.678 | 0.604 | 0.737 | 0.746 | 0.856 | 0.887 | 0.897 | 0.656
